Converted amounts (≈) assume the structure as drawn.
How the values were obtained:
Type in all cases: cell-based
Aspergillus niger = assay: Use Example B: minimum inhibitory concentration against fungi on malt extract agar; conditions: 2 weeks at 28° C., 60-70% relative atmospheric humidity
Procedure: (§1) The MIC is determined after 2 weeks of storage at 28° C. and 60-70% relative atmospheric humidity.

Chaetomium globusum = assay: as above; conditions: 2 weeks at 28° C., 60-70% relative atmospheric humidity
Procedure: as §1

Penicillium brevicaule = assay: as above; conditions: 2 weeks at 28° C., 60-70% relative atmospheric humidity
Procedure: as §1

Pseudomonas aeroginosa = assay: Use Example A: minimum inhibitory concentration against bacteria on Landy agar; conditions: 3 days at 28° C., 60-70% relative atmospheric humidity
Procedure: (§2) The MIC is determined after 3 days of storage at 28° C. and 60-70% relative atmospheric humidity.

Bacillus subtilis = assay: as above; conditions: 3 days at 28° C., 60-70% relative atmospheric humidity
Procedure: as §2

Structure (SMILES) | MIC (Aspergillus niger; Aspergillus niger, 336 h) [µg/mL] | MIC (Chaetomium globusum; Chaetomium, 336 h) [µg/mL] | MIC (Penicillium brevicaule; Penicillium, 336 h) [µg/mL] | MIC (Pseudomonas aeroginosa; Pseudomonas, 72 h) [µg/mL] | MIC (Bacillus subtilis; Bacillus subtilis, 72 h) [µg/mL] | Minimum inhibitory concentration Aspergillus niger (Aspergillus niger) [ppm] | Minimum inhibitory concentration Chaetomium globusum (Chaetomium globusum) [ppm] | Minimum inhibitory concentration Penicillium brevicaule (Penicillium brevicaule) [ppm] | Minimum inhibitory concentration Pseudomonas aeroginosa (Pseudomonas aeroginosa) [ppm] | Minimum inhibitory concentration Bacillus subtilis (Bacillus subtilis) [ppm]
O=[N+]([O-])c1ccon1 [Example 1, 3-Nitroisoxazole] | 100 (≈ 877 µM) | 200 (≈ 1750 µM) | 100 (≈ 877 µM) | 100 (≈ 877 µM) | < 40 | – | – | – | – | –
O=[N+]([O-])c1cc(-c2ccccc2)on1 [Example 2] | – | – | – | – | – | 400 | 200 | 200 | >400 | <40
Cc1cc([N+](=O)[O-])no1 [Example 3] | – | – | – | – | – | 200 | 200 | 200 | 200 | <40
CCCCc1cc([N+](=O)[O-])no1 [Example 4] | – | – | – | – | – | >400 | 400 | 400 | 200 | <40
CCOc1ccc(-c2cc([N+](=O)[O-])no2)cc1Cl [Example 5] | – | – | – | – | – | 400 | 100 | 200 | >400 | <40
